Experimental data from patent US20230405028A1 (priority 2020, published 2023).
Read-outs that look alike come from different tables or passages of the source.

Columns and labels:
[1] = test system: COX-2; assay: COX-2 in HSIEC cells treated with TNF-α/IFN-γ (western blot, densitometry); assay type: cell-based, human; settings: single agent, escalating doses
Method: (§1) Cell Culture: Human primary small intestinal epithelial cells (HSIEC), purchased from Cell Biologics were cultured in Epithelial Cell Medium/w Kit. HSIEC cells were incubated at 37° C. in a humidified atmosphere of 5% CO2. HSIEC cells were treated with mycoplasma removal reagent BM-Cyclin (Roche) to ensure mycoplasma negative before treatment.
To do so, COX-2, an enzyme which mediates the bioconversion of arachidonic acid to inflammatory prostaglandins (PGs), was measured via densitometry. GAPDH was used as a reference housekeeping marker for relative densitometry measures. […] Ethanol or DMSO was used, as indicated in the figures, as a vehicle for dilution and as a negative control showing the amount of the inflammatory marker present when inflammation was not induced.
Increasing doses of each molecule of interest, or each combination of molecules of interest, were then distributed to the HSIEC cells treated to induce inflammatory response. Inflammatory markers COX-2 and/or IL-6 were assessed at specific timepoints after induction of inflammation for protein content marker measured via western blot. GAPDH was used as a reference housekeeping marker for relative densitometry measures of protein content.

[2] = test system: IL-6; assay: IL-6 in HSIEC cells treated with TNF-α/IFN-γ; assay type: cell-based, human; settings: single agent, escalating doses
Method: as §1
Induction of Inflammation in HSIECs and Treatment with Molecules of Interest: HSIEC cells grown to 80% confluence were treated with 10 ng/ml TNF-α/IFN-γ (Sigma) (Yang et al., 2015), for the time points indicated in FIG. 9, to assess the best time point for determination of anti-inflammatory potential of the molecules and formulations of interest. To do so, COX-2, an enzyme which mediates the bioconversion of arachidonic acid to inflammatory prostaglandins (PGs), was measured via densitometry. GAPDH was used as a reference housekeeping marker for relative densitometry measures. […] The anti-inflammatory potential of the molecules and formulations of interest were evaluated at 48 hours post-TNF-α/IFN-γ treatment in the HSIEC assays described below due to reduced variability and ability to assess differences between treatments. Ethanol or DMSO was used, as indicated in the figures, as a vehicle for dilution and as a negative control showing the amount of the inflammatory marker present when inflammation was not induced. […]

[3] = test system: IL-8; assay: IL-8 in HSIEC cells treated with TNF-α/IFN-γ; assay type: cell-based, human; settings: single agent, escalating doses
[4] = test system: Human primary small intestinal epithelial cells (HSIEC)

**Q.** What does the source list for Cc1ccc(C(C)C)cc1O [carvacrol]?
**A.** doses reducing COX-2 to the greatest extent [1]: 5 µM; doses resulting in reduction of IL-6 [2]: 10 µM; doses resulting in reduction of IL-8 [3]: all doses; effect on cell growth / cellular metabolic activity (MTT, words) [4]: could only be studied at very low dose; Cellular Metabolic Activity ([4]; 5 μM, 24 h): 0.072; Cellular Metabolic Activity ([4]; 5 μM, 48 h): 0.175; Cellular Metabolic Activity ([4]; 5 μM, 72 h): 0.261; Cellular Metabolic Activity ([4]; 5 μM, 96 h): 0.501; Cellular Metabolic Activity ([4]; 5 μM, time 0): 0.022; Cellular Metabolic Activity ([4]; 10 μM, 24 h): 0.070; Cellular Metabolic Activity ([4]; 10 μM, 48 h): 0.164; Cellular Metabolic Activity ([4]; 10 μM, 72 h): 0.267; Cellular Metabolic Activity ([4]; 10 μM, 96 h): 0.487; Cellular Metabolic Activity ([4]; 10 μM, time 0): 0.021; Cellular Metabolic Activity ([4]; 20 μM, 24 h): 0.071; Cellular Metabolic Activity ([4]; 20 μM, 48 h): 0.171; Cellular Metabolic Activity ([4]; 20 μM, 72 h): 0.266; Cellular Metabolic Activity ([4]; 20 μM, 96 h): 0.461; Cellular Metabolic Activity ([4]; 20 μM, time 0): 0.022; Cellular Metabolic Activity ([4]; 40 μM, 24 h): 0.070; Cellular Metabolic Activity ([4]; 40 μM, 48 h): 0.159; Cellular Metabolic Activity ([4]; 40 μM, 72 h): 0.272; Cellular Metabolic Activity ([4]; 40 μM, 96 h): 0.544; Cellular Metabolic Activity ([4]; 40 μM, time 0): 0.022; Cellular Metabolic Activity ([4]; 80 μM, 24 h): 0.076; Cellular Metabolic Activity ([4]; 80 μM, 48 h): 0.120; Cellular Metabolic Activity ([4]; 80 μM, 72 h): 0.221; Cellular Metabolic Activity ([4]; 80 μM, 96 h): 0.423; Cellular Metabolic Activity ([4]; 80 μM, time 0): 0.025; Cellular Metabolic Activity ([4]; 100 μM, 24 h): 0.069; Cellular Metabolic Activity ([4]; 100 μM, 48 h): 0.106; Cellular Metabolic Activity ([4]; 100 μM, 72 h): 0.259; Cellular Metabolic Activity ([4]; 100 μM, 96 h): 0.397; Cellular Metabolic Activity ([4]; 100 μM, time 0): 0.026; Cellular Metabolic Activity ([4]; 200 μM, 24 h): 0.061; Cellular Metabolic Activity ([4]; 200 μM, 48 h): 0.088; Cellular Metabolic Activity ([4]; 200 μM, 72 h): 0.179; Cellular Metabolic Activity ([4]; 200 μM, 96 h): 0.238; Cellular Metabolic Activity ([4]; 200 μM, time 0): 0.027; Cellular Metabolic Activity ([4]; 400 μM, 24 h): 0.062; Cellular Metabolic Activity ([4]; 400 μM, 48 h): 0.079; Cellular Metabolic Activity ([4]; 400 μM, 72 h): 0.139; Cellular Metabolic Activity ([4]; 400 μM, 96 h): 0.137; Cellular Metabolic Activity ([4]; 400 μM, time 0): 0.027
